Measurements taken from ChEMBL document CHEMBL1649335, “Discovery of {1-[4-(2-{hexahydropyrrolo[3,4-c]pyrrol-2(1H)-yl}-1H-benzimidazol-1-yl)piperidin-1-yl]cyclooctyl}methanol, systemically potent novel non-peptide agonist of nociceptin/orphanin FQ receptor as analgesic for the treatment of neuropathic pain: design, synthesis, and structure-activity …” (Bioorg Med Chem, 2010).
The source made the active and inactive calls.

Columns and labels:
Mu-type opioid receptor = Mu-type opioid receptor (Homo sapiens, UniProt P35372)
Nociceptin receptor [1] = biological target: T1, Nociceptin receptor (Homo sapiens, UniProt P41146); test: biochemical
Nociceptin receptor [2] = biological target: T1, Nociceptin receptor
[3] = Inhibition of rat K+ATP channel
[4] = Inhibition of rat choline transporter
[5] = Inhibition of rat 5-HT receptor
Rattus norvegicus [6] = test: Antiallodynic activity against von Frey hair mechanically stimulated neuropathic pain in Sprague-Dawley rat assessed as effect on allodynia in contralateral paw at 0.55 to 170 nmol/site administered intrathecally after 1 hr; type: functional, organism-based
Rattus norvegicus [7] = test: Antiallodynic activity against von Frey hair mechanically stimulated neuropathic pain in Sprague-Dawley rat assessed as effect on allodynia in contralateral paw at 0.55 to 170 nmol/site administered intrathecally after 20 mins; type: functional, organism-based
Rattus norvegicus [8] = test: Antiallodynic activity against von Frey hair mechanically stimulated neuropathic pain in intrathecally dosed Sprague-Dawley rat assessed as assessed as minimum effective dose to increase of response threshold per site after 20 mins; type: functional
Rattus norvegicus [9] = test: Antiallodynic activity against von Frey hair mechanically stimulated neuropathic pain in Sprague-Dawley rat assessed as increase of response threshold per site at 0.55 to 170 nmol/site, icv after 1 hr; type: functional, organism-based
Rattus norvegicus [10] = test: Antiallodynic activity against von Frey hair mechanically stimulated neuropathic pain in intrathecally dosed Sprague-Dawley rat assessed as increase of response threshold per site after 20 mins; type: functional
Rattus norvegicus [11] = test: Antiallodynic activity against von Frey hair mechanically stimulated neuropathic pain in Sprague-Dawley rat assessed as assessed as minimum effective dose to increase of response threshold per site at 0.55 to 170 nmol/site, icv after 20 mins; type: functional, organism-based
Rattus norvegicus [12] = test: Antiallodynic activity against von Frey hair mechanically stimulated neuropathic pain in Sprague-Dawley rat assessed as increase of response threshold per site at 0.55 to 170 nmol/site, icv after 20 mins; type: functional, organism-based
Rattus norvegicus [13] = test: Antiallodynic activity against von Frey hair mechanically stimulated neuropathic pain in Sprague-Dawley rat assessed as assessed as minimum effective dose to increase of response threshold per site at 0.55 to 55 nmol/site administered intrathecally after 1 hr; type: functional, organism-based
Rattus norvegicus [14] = test: Antiallodynic activity against von Frey hair mechanically stimulated neuropathic pain in icv dosed Sprague-Dawley rat assessed as decrease of response threshold in contralateral paw after 1 hr; type: functional, organism-based
Rattus norvegicus [15] = test: Antiallodynic activity against von Frey hair mechanically stimulated neuropathic pain in Sprague-Dawley rat assessed as assessed as minimum effective dose to increase of response threshold per site at 0.55 to 170 nmol/site, icv after 1 hr; type: functional, organism-based
Rattus norvegicus [16] = test: Antiallodynic activity against von Frey hair mechanically stimulated neuropathic pain in Sprague-Dawley rat assessed as increase of response threshold per site at 0.55 to 55 nmol/site administered intrathecally after 1 hr; type: functional, organism-based
Rattus norvegicus [17] = test: Antiallodynic activity against von Frey hair mechanically stimulated neuropathic pain in icv dosed Sprague-Dawley rat assessed as decrease of response threshold in contralateral paw after 20 mins; type: functional, organism-based
Rattus norvegicus [18] = test: Antiallodynic activity against von Frey hair mechanically stimulated neuropathic pain in Sprague-Dawley rat assessed as effect on allodynia in contralateral paw at 1 to 30 mg/kg, sc after 30 mins to 4 hrs; type: functional, organism-based
Rattus norvegicus [19] = test: Antiallodynic activity against von Frey hair mechanically stimulated neuropathic pain in Sprague-Dawley rat assessed as increase of response threshold at 1 to 30 mg/kg, sc after 30 mins to 4 hrs; type: functional, organism-based
Rattus norvegicus [20] = test: Antiallodynic activity against von Frey hair mechanically stimulated neuropathic pain in Sprague-Dawley rat assessed as assessed as minimum effective dose to increase of response threshold at 1 to 30 mg/kg, sc after 30 mins to 4 hrs; type: functional, organism-based
[21] = Inhibition of rat phospholipase C
Glutamate NMDA receptor = test: Inhibition of rat NMDA receptor; type: protein-complex assay
[22] = Inhibition of rat Na+ channel site 2
[23] = Inhibition of rat N-type Ca2+ channel
Tyrosine 3-monooxygenase = Tyrosine 3-monooxygenase (Rattus norvegicus, UniProt P04177); test: Inhibition of rat tyrosine hydroxylase
in vitro = conditions: human, liver microsomes
[24] = biological target: Kappa-type opioid receptor (Homo sapiens, UniProt P41145)
[25] = Inhibition of rat chloride channel
[26] = biological target: T2, Voltage-gated L-type calcium channel (Rattus norvegicus, UniProt P22002+Q02485+P27732); test: Inhibition of rat L-type Ca2+ channel verapamil site
[27] = biological target: T2, Voltage-gated L-type calcium channel; test: Inhibition of rat L-type Ca2+ channel dihydropyridine site
[28] = Inhibition of rat GABA transporter
[29] = Stimulation of rat adenylate cyclase

Mu-type opioid receptor, sequence (P35372 whole entry): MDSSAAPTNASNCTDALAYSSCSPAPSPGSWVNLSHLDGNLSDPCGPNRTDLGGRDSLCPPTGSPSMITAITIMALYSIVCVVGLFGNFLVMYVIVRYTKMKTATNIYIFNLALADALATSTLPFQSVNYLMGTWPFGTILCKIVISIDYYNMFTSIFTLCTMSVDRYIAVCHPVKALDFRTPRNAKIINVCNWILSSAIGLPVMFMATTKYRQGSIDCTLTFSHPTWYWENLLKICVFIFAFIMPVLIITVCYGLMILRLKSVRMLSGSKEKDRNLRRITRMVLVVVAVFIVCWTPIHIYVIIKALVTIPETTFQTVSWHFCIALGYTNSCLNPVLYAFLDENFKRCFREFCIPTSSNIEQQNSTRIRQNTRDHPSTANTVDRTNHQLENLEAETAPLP
T1 sequence (P41146 whole entry): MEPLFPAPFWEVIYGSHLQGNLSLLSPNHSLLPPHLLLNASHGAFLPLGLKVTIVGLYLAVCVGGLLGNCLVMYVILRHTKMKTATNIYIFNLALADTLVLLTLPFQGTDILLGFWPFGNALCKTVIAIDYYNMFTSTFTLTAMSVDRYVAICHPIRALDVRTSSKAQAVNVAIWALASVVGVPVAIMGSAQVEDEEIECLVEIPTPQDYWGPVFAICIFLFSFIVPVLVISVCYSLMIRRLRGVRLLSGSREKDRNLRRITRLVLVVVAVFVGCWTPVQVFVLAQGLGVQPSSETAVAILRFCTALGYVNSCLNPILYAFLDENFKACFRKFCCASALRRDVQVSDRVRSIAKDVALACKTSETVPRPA
Kappa-type opioid receptor, sequence (P41145 whole entry): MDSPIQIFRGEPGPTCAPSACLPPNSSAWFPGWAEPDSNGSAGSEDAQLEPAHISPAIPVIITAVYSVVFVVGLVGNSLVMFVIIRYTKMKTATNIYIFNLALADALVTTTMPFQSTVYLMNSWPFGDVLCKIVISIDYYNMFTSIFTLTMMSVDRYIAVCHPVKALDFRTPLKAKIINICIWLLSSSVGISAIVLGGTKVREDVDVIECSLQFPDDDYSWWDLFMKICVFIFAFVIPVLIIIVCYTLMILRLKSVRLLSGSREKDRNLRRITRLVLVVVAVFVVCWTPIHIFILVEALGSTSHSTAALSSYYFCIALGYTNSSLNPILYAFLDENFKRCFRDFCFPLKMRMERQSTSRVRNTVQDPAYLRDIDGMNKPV
Tyrosine 3-monooxygenase, sequence (P04177 whole entry): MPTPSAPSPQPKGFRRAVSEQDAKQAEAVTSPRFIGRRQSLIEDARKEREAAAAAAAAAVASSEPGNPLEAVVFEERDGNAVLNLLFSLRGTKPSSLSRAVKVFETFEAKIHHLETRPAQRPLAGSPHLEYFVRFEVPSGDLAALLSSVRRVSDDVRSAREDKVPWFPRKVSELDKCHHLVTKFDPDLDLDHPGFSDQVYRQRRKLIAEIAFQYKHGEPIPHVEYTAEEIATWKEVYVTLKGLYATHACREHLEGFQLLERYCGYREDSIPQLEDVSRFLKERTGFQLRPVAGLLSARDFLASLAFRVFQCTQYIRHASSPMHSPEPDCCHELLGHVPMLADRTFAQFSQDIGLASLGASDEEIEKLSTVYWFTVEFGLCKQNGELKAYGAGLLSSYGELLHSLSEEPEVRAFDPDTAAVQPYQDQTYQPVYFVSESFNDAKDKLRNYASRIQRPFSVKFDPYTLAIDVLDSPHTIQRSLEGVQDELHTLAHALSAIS

## OCC1(N2CCC(n3c(-c4ccc(F)c(Cl)c4)nc4ccccc43)CC2)CCCCCCC1
Mu-type opioid receptor
  EC50: 1220 nM
Nociceptin receptor [1]
  Ki: 0.73 nM
Nociceptin receptor [2]
  EC50: 8.9 nM

## COc1ccc(Cl)cc1C(=O)NCCc1ccc(S(=O)(=O)NC(=O)NC2CCCCC2)cc1 [GLYBURIDE]
[3]
  IC50: 1.1 nM

## CN1CCN(c2nc3ccccc3n2C2CCN(C3(C(=O)O)CCCCCCC3)CC2)CC1
Nociceptin receptor [1]
  Ki: > 250 nM

## C[N+]1(C)CCO[C@@](O)(c2ccc(-c3ccc([C@@]4(O)C[N+](C)(C)CCO4)cc3)cc2)C1 [HEMICHOLINIUM DIBROMIDE]
[4]
  IC50: 7.7 nM

## NCCc1c[nH]c2ccc(O)cc12 [SEROTONIN]
[5]
  IC50: 2.7 nM

## CC(C)C[C@H](NC(=O)[C@H](CCCCN)NC(=O)[C@H](CCCNC(=N)N)NC(=O)[C@H](C)NC(=O)[C@H](CO)NC(=O)[C@H](CCCCN)NC(=O)[C@H](CCCNC(=N)N)NC(=O)[C@H](C)NC(=O)CNC(=O)[C@@H](NC(=O)[C@H](Cc1ccccc1)NC(=O)CNC(=O)CNC(=O)[C@@H](N)Cc1ccccc1)[C@@H](C)O)C(=O)N[C@@H](C)C(=O)N[C@@H](CC(N)=O)C(=O)N[C@@H](CCC(N)=O)C(=O)O [NOCICEPTIN]
Rattus norvegicus [6]
  Activity: inactive
Rattus norvegicus [7]
  Activity: inactive
Rattus norvegicus [8]
  MED: 55 nmol
Rattus norvegicus [9]
  ED50: inactive
Rattus norvegicus [10]
  ED50: 10.3 nmol
Rattus norvegicus [11]
  MED: inactive
Rattus norvegicus [12]
  ED50: inactive
Rattus norvegicus [13]
  MED: inactive
Rattus norvegicus [14]
  Activity: Dose-dependent effect
Rattus norvegicus [15]
  MED: inactive
Rattus norvegicus [16]
  ED50: inactive
Rattus norvegicus [17]
  Activity: Dose-dependent effect

## CC1(C)CN(c2nc3ccccc3n2C2CCN(C3(CO)CCCCCCC3)CC2)CCN1
Rattus norvegicus [18]
  Activity: inactive
Rattus norvegicus [19]
  ED50: inactive
Rattus norvegicus [20]
  MED: inactive
Nociceptin receptor [1]
  Ki: 4.54 nM
Nociceptin receptor [2]
  EC50: 23 nM

## NC[C@@H]1O[C@H](O[C@H]2[C@@H](O)[C@H](O[C@@H]3[C@@H](O)[C@H](N)C[C@H](N)[C@H]3O[C@H]3O[C@H](CN)[C@@H](O)[C@H](O)[C@H]3N)O[C@@H]2CO)[C@H](N)[C@@H](O)[C@@H]1O [FRAMYCETIN]
[21]
  IC50: 7.9 nM

## O=C(O)[C@@H]1C[C@H](CP(=O)(O)O)CCN1 [SELFOTEL]
Glutamate NMDA receptor
  IC50: 1620 nM

## COc1ccc(C(=O)O[C@H]2CC[C@@]3(C)[C@@H]4CC[C@H]5[C@]6(O)C[C@H](O)[C@@]7(O)[C@@H](CN8C[C@@H](C)CC[C@H]8[C@@]7(C)O)[C@]6(O)C[C@@]53O[C@]24O)cc1OC [VERATRIDINE]
[22]
  IC50: 10.7 µM

## OCC1(N2CCC(n3c(-c4ccc(F)c(Cl)c4)nc4ccccc43)CC2)CCCCC1
Nociceptin receptor [1]
  Ki: 4.29 nM
Nociceptin receptor [2]
  EC50: 53 nM

## C[C@@H](O)[C@@H]1NC(=O)[C@H](Cc2ccc(O)cc2)NC(=O)[C@@H]2C[C@@H](O)CN2C(=O)[C@H](CC(N)=O)NC(=O)[C@@H]2CSSC[C@@H]3NC(=O)[C@H](CO)NC(=O)[C@H](CO)NC(=O)CNC(=O)[C@@H]4C[C@@H](O)CN4C(=O)[C@H](CO)NC(=O)[C@H](CCCCN)NC(=O)[C@@H](N)CSSC[C@H](NC(=O)[C@H](CSSC[C@@H](C(=O)N[C@@H](Cc4ccc(O)cc4)C(N)=O)NC(=O)[C@H](CCCNC(=N)N)NC(=O)[C@H](CCCCN)NC1=O)NC(=O)[C@H](CC(N)=O)NC(=O)[C@H](Cc1ccc(O)cc1)NC(=O)[C@H](CO)NC(=O)[C@H]([C@@H](C)O)NC(=O)[C@@H]1C[C@@H](O)CN1C(=O)[C@H](CO)NC3=O)C(=O)N[C@@H](CCCNC(=N)N)C(=O)N[C@@H](CO)C(=O)N2
[23]
  IC50: 0.045 nM

## N[C@@H](Cc1ccc(O)c(I)c1)C(=O)O [IOTYROSINE]
Tyrosine 3-monooxygenase
  IC50: 1.4 nM

## CC1CN(c2nc3ccccc3n2C2CCN(C3(CO)CCCCCCC3)CC2)CCN1 (stereo not drawn)
In vitro
  half-life at 1 µM: 19.7 min
[24]
  EC50: 366 nM
Mu-type opioid receptor
  EC50: 1770 nM
Nociceptin receptor [1]
  Ki: 0.96 nM
Nociceptin receptor [2]
  EC50: 38 nM

## CN1CCN(c2nc3ccccc3n2C2CCN(C3(CO)CCCCCCC3)CC2)CC1
In vitro
  half-life at 1 µM: 9.5 min
[24]
  EC50: 18 nM
Nociceptin receptor [1]
  Ki: 4.29 nM
Nociceptin receptor [2]
  EC50: 17 nM

## C=C(C)[C@@H]1[C@H]2OC(=O)[C@@H]1[C@]1(O)C[C@H]3O[C@]34C(=O)O[C@H]2[C@]14C [PICROTOXININ]
[25]
  IC50: 385 nM

## OCC1(N2CCC(n3c(-c4ccc(Cl)cc4)nc4ccccc43)CC2)CCCCCCC1
Mu-type opioid receptor
  EC50: > 10000 nM
Nociceptin receptor [1]
  Ki: 0.15 nM
Nociceptin receptor [2]
  EC50: 9.1 nM

## COc1ccc(CCN(C)CCCC(C#N)(c2cc(OC)c(OC)c(OC)c2)C(C)C)cc1OC (stereo not drawn) [GALLOPAMIL]
[26]
  IC50: 23 nM

## CCOC(=O)C1=C(C)NC(C)=C(C(=O)OC)C1c1cccc([N+](=O)[O-])c1 (stereo not drawn) [NITRENDIPINE]
[27]
  IC50: 1.3 nM

## O=C(O)C1CCCNC1 (stereo not drawn) [NIPECOTIC ACID]
[28]
  IC50: 7.17 µM

## C=C[C@@]1(C)CC(=O)[C@]2(O)[C@@]3(C)[C@@H](O)CCC(C)(C)[C@@H]3[C@H](O)[C@H](OC(C)=O)[C@@]2(C)O1 [COLFORSIN]
[29]
  EC50: 4.3 µM
